Assay results published in PMC4287437, “Novel Inhibitors Induce Large Conformational Changes of GAB1 Pleckstrin Homology Domain and Kill Breast Cancer Cells” (PLoS Computational Biology, 2015).
Values joined by “and” are separate entries in the source; they are usually repeats but may differ in a detail not shown here. Equal values may be shown once.

How the values were obtained:
[1] = tested on: phospho-Tyr627 GAB1; assay: Inhibition of GAB1 Y627 phosphorylation in T47D cells; format: cell-based, human; conditions: 20 µM, 4 hr, HGF stimulated
Procedure: For all biological assays, hit compounds were added at 20 µM concentration directly into the culture media of the cells for 4 hr following a 16 hr incubation of T47D cells without FBS. Cells were stimulated with HGF for 20 min at 50 ng/ml. Following this treatment, cells were lysed as previously published and equal amounts of total cell lysate were loaded on a pSer^312-IRS-1/Total IRS-1 Meso Scale Discovery plate as described by the manufacturer. The plate was read using a Sector Imager 2400A instrument (Meso Scale Discovery protein profiling system, Gaithersburg, MD). For the measurement of GAB1 phosphorylation, T47D cells were treated as for the phosphorylation of IRS1 evaluation. […] Each experiment was performed at least three times.

[2] = tested on: T47D; assay: Cellular proliferation (MTT) assay, T47D; format: cell-based, human; conditions: for IC50: 4 days growth, MTT, IA = Inactive; for toxicity to T47D at 100 µM: data not shown
Procedure: (§1) T47D and MDA-MB-231 cells were maintained in bulk culture in Dulbecco's modified Eagle medium (DMEM) supplemented with 10% heat-inactivated fetal bovine serum (FBS), 4.5 g/L glucose, 100 U/mL penicillin and […] streptomycin in a 5% CO2 atmosphere. MCF-10A cells were maintained in MEGM with other conditions same as the cancer cell lines. […] Cells were confirmed to be mycoplasma free by testing them with an ELISA kit (Roche-Boehringer Mannheim, Indianapolis, IN). Our hit compounds were freshly prepared in DMSO at a stock concentration of 10 mM. For the evaluation of cellular proliferation, a standard 96-well micro-cytotoxicity assay was performed as described in reference. Briefly, the assay was set up by plating cells at 5,000–10,000 cells per well (depending on cell doubling time) for a growth period of 4 days. The identified hits were added directly to the media, dissolved in DMSO at various concentrations ranging from 1 to 200 µM. The endpoint was spectrophotometric determination of the reduction of 3-(4,5-dimethylthiazol-2-yl)-2,5-diphenyltetrazolium bromide. All assays were performed in triplicates.

[3] = target: T1, human IRS1 PH domain (Homo sapiens, UniProt P35568); assay: SPR direct binding to IRS1 PH domain; conditions: for Kd: read-out: KD IRS1; for Exp. ΔGbind: IRS1, derived from experimental KD
T1 sequence (P35568 12-115 limits assumed): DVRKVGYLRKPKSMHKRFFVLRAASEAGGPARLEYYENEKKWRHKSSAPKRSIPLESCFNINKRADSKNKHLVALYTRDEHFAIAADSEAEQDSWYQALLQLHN
Procedure: (§3) Binding assays were performed using a Biacore 2000 instrument with the Biacore Control Software v3.2 and BIAevaluation v4.1 analysis software (Biacore, Piscataway, NJ) as previously described [51]. Briefly, the PH domain GST-fusion proteins were immobilized on a CM5 Sensorchip (Biacore BR-1000-12) using Biacore's Amine Coupling Kit (Biacore BR-1000-50) to a level of 10,000 Response units (RUs). Small molecule analytes at concentrations ranging from one tenth to ten times the predicted K D were injected at a high flow rate (30 µL/min). Dimethylsulfoxide (DMSO) concentrations in all samples and running buffer were 1% (v/v) or less. For the competitive binding assays and K i determination, PtdIns(3,4,5)P3-biotin labeled liposomes (Echelon Biosciences, Salt Lake City, UT) and SA chips were used with increasing concentrations of the compound tested. We did triplicate SPR assays for each concentration.

[4] = target: T2, human GAB1 PH domain (Homo sapiens, UniProt Q13480); assay: SPR competitive binding (PtdIns(3,4,5)P3-biotin liposomes), Ki, GAB1 PH domain; conditions: read-out: Ki GAB1, cells marked * (Ki measurement)
T2 sequence (Q13480 5-116 limits assumed): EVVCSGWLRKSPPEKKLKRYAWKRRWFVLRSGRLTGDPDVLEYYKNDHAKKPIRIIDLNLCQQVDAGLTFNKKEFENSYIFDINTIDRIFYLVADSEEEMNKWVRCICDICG
Procedure: as §3

[5] = tested on: MDA-MB-231; assay: Cellular proliferation (MTT) assay, MDA-MB-231; format: cell-based, human; conditions: for IC50: 4 days growth, MTT, IA = Inactive; for toxicity to MDA-MB-231 at 100 µM: data not shown
Procedure: as §1

[6] = target: T2, human GAB1 PH domain; assay: SPR direct binding to GAB1 PH domain; conditions: for Kd: read-out: KD GAB1; for Kd / KD GAB1: SPR, immobilized PH domain GST-fusion, NB = No Binding; for Exp. ΔGbind: GAB1, derived from experimental KD (or Ki)
Procedure: as §3

[7] = target: GAB2 PH domain (Homo sapiens, UniProt Q9UQC2); assay: Follow-up binding to GAB2 PH domain; conditions: follow-up experiments
GAB2 PH domain, sequence (Q9UQC2 6-117 limits assumed): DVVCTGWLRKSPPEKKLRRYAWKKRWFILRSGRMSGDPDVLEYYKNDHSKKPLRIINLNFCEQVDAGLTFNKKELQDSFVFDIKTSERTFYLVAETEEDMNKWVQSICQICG

[8] = tested on: MDA-MB-468 cell line; assay: Cellular proliferation assay, MDA-MB-468; format: cell-based; conditions: cell marked ** in MDA-MB-231 column: MDA-MB-468 cell line used
Procedure: (§2) Two human breast cancer cell lines and one normal breast cell line were used for this study: T47D ductal breast epithelial tumor cell line, MDA-MB-231 epithelial tumor cell line and MCF-10A non-tumorigenic epithelial cell line (American Type Culture Collection, Rockville, MD). T47D and MDA-MB-231 cells were maintained in bulk culture in Dulbecco's modified Eagle medium (DMEM) supplemented with 10% heat-inactivated fetal bovine serum (FBS), 4.5 g/L glucose, 100 U/mL penicillin and […] streptomycin in a 5% CO2 atmosphere. MCF-10A cells were maintained in MEGM with other conditions same as the cancer cell lines. Cells were passaged using 0.25% trypsin and 0.02% EDTA. Cells were confirmed to be mycoplasma free by testing them with an ELISA kit (Roche-Boehringer Mannheim, Indianapolis, IN). Our hit compounds were freshly prepared in DMSO at a stock concentration of 10 mM. For the evaluation of cellular proliferation, a standard 96-well micro-cytotoxicity assay was performed as described in reference. Briefly, the assay was set up by plating cells at 5,000–10,000 cells per well (depending on cell doubling time) for a growth period of 4 days. The identified hits were added directly to the media, dissolved in DMSO at various concentrations ranging from 1 to 200 µM. […]

[9] = tested on: MCF-10A; assay: Cellular proliferation assay, MCF-10A non-tumorigenic cells; format: cell-based, human; conditions: data not shown
Procedure: as §2

[10] = SPR, immobilized PH domain GST-fusion, NB = No Binding

| Compound | % pGAB1 inhibition [1] [%] | IC50 [2] [µM] | Kd [3, 10] [µM] | IC50 [5] [µM] | Kd [6] [µM] | also measured |
| --- | --- | --- | --- | --- | --- | --- |
| CCCCCCCCCCCCc1ccc(S(=O)(=O)Nc2nnc(CC(=O)O)s2)cc1 [GAB-015] | 77 | 125 ± 5.4 | 0.05 |  |  | Ki [4]: 13.1 ± 1.5 µM |
| O=S(=O)(NCc1csc(-c2cccs2)n1)c1ccc(N2CCOCC2)nc1 [GAB-008] | 8 | 43.2 ± 3.2 | 16.2 ± 1.7 | > 200 | > 50 |  |
| CCCCCCCCCCCCc1ccc(S(=O)(=O)Nc2nnc(C(=O)OCC)s2)cc1 [GAB-017] |  |  | 0.05 |  | 0.68 ± 0.03 | Exp. ΔGbind [6]: -8.47 kcal/mol; KD GAB1 [6]: nanomolar binding affinity |
| CCCCCCCCCCCCc1ccc(S(=O)(=O)Nc2nnc(CC(=O)OCC)s2)cc1 [GAB-016] |  |  | 0.15 |  | 0.9 ± 0.1 | targeting of GAB2 PH domain [7]: targets GAB2 PH domain as well; Exp. ΔGbind [6]: -8.31 kcal/mol; KD GAB1 [6]: nanomolar binding affinity; Exp. ΔGbind [3]: -9.38 kcal/mol |
| CCCCCCCCCCCCc1ccc(S(=O)(=O)Nc2nncs2)cc1 [GAB-020] | 87 |  |  |  | 1.33 |  |
| Cn1cnc(S(=O)(=O)Nc2ccccc2SCCS(=O)(=O)c2ccc(Cl)cc2)c1 [GAB-002] | 32 | 138 ± 6.9 | 16.4 ± 4.3 | 143 ± 11.6 | 2.1 ± 0.1 |  |
| CS(=O)(=NS(=O)(=O)c1ccc(-c2ccccn2)s1)c1ccc(Cl)cc1 (stereo not shown) [GAB-005] | 6 | > 200 | > 50 | > 200 | > 50 |  |
| Cc1nnc(NS(=O)(=O)c2ccc(NS(=O)(=O)c3ccc4ccccc4c3)cc2)s1 [GAB-014] | 42 | 178 ± 3.9 | > 50 |  | > 50 | IC50 [8]: 69.9 ± 0.1 µM |
| O=c1[nH]nc(SCc2csc(-c3ccccc3)n2)n1Cc1ccco1 [GAB-004] | 81 | 19.4 ± 2.9 | > 50 | 66.6 ± 4.6 | 2.2 ± 1.1 | Exp. ΔGbind [6]: -7.78 kcal/mol |
| COc1cc(NS(=O)(=O)c2ccc(NS(=O)(=O)c3c(C)noc3C)cc2)nc(OC)n1 [GAB-013] | 27 | > 200 | > 50 | > 200 | > 50 | killing of MDA-MB-231 cells at 50 µM [5]: did not effectively kill; toxicity to MDA-MB-231 at 100 µM [5]: not for T47D and MDA-MB-231; killing of T47D cells at 50 µM [2]: did not effectively kill; toxicity to T47D at 100 µM [2]: not for T47D and MDA-MB-231; toxicity to MCF-10A at 100 µM [9]: toxic |
| Cn1c(Cc2ccsc2)nnc1SCC(=O)Nc1cc(Cl)cc(Cl)c1 [GAB-011] | 24 | > 200 | > 50 | > 200 | > 50 |  |
| CCCCCCCCCCCCCCCCCCOC[C@H](COP(=O)(O)OC1C(O)[C@@H](O)C(O)C[C@H]1O)OC (stereo partly shown) [DPIEL, reference compound] | 72 |  |  |  | 2.8 |  |
| CS(=O)(=O)CCSc1ncccc1C(=O)Sc1ccc(Cl)cc1Cl [GAB-007] | 53 | 20.1 ± 4.3 | 1.6 ± 0.2 | 4.6 ± 0.7 | 42.3 ± 8.9 | Exp. ΔGbind [6]: -6.01 kcal/mol; Exp. ΔGbind [3]: -7.93 kcal/mol |
| Cc1noc(C)c1NC(=O)NCc1csc(-c2cccs2)n1 [GAB-009] | 38 | 97.6 ± 6.1 | > 50 | 163 ± 6 | > 50 |  |
| Cc1onc(-c2ccccc2)c1-c1nc(CSc2nc3ccccc3[nH]2)no1 [GAB-010] | 92 | 23.8 ± 4.2 | 0.12 ± 0.02 | 66 ± 4.4 | > 50 | Exp. ΔGbind [3]: -9.51 kcal/mol |
| Cc1cc2ncc(-c3cnc(SCCS(=O)(=O)c4ccc(Cl)cc4)nc3)c(C)n2n1 [GAB-006] | 16 | 101 ± 1.8 | > 50 |  | > 50 |  |
| CCCCCCCCCCCCc1ccc(S(=O)(=O)Nc2nnc(S(N)(=O)=O)s2)cc1 [GAB-018] | 71 | 185 ± 2.5 | > 50 |  |  | killing of MDA-MB-231 cells at 50 µM [5]: did not effectively kill; killing of T47D cells at 50 µM [2]: did not effectively kill; Ki [4]: 36.6 ± 5 µM |
| CCc1ccc(C(=O)OC)cc1CSc1nnc(-c2ccc(C(F)(F)F)cc2)n1Cc1ccoc1 [GAB-019] | 91 | 39.4 ± 6.2 |  |  |  |  |
| O=S(=O)(NCc1csc2ccc(Cl)cc12)c1cc(S(=O)(=O)c2ccccc2)cs1 [GAB-001] | 55 | 23.7 ± 2.7 | > 50 | 40.3 ± 1.3 |  | Exp. ΔGbind [6]: -6.91 kcal/mol; KD IRS1 [3, 10]: not to IRS1 PH domain; Ki [4]: 9.4 µM and 9.38 µM |
| O=C(O)c1ccccc1C(=O)Nc1ccccc1SCCS(=O)(=O)c1ccc(Cl)cc1 [GAB-012] | 43 | 119 ± 3.6 | > 50 | > 200 | > 50 | killing of MDA-MB-231 cells at 50 µM [5]: did not effectively kill; toxicity to MDA-MB-231 at 100 µM [5]: not for T47D and MDA-MB-231; killing of T47D cells at 50 µM [2]: did not effectively kill; toxicity to T47D at 100 µM [2]: not for T47D and MDA-MB-231; toxicity to MCF-10A at 100 µM [9]: toxic |
